# Reference: patent US10316028B2, “Orexin receptor antagonists” (Heptares Therapeutics Limited, priority 2012, dated 2019)
# Target: T1, human Orexin-2 receptor (Homo sapiens, UniProt O43614)
# T1 construct: expressed in transfected cells; host or cells: HEK293 cells (transient transfection, Genejuice); membranes
# T1 sequence (O43614 1-444): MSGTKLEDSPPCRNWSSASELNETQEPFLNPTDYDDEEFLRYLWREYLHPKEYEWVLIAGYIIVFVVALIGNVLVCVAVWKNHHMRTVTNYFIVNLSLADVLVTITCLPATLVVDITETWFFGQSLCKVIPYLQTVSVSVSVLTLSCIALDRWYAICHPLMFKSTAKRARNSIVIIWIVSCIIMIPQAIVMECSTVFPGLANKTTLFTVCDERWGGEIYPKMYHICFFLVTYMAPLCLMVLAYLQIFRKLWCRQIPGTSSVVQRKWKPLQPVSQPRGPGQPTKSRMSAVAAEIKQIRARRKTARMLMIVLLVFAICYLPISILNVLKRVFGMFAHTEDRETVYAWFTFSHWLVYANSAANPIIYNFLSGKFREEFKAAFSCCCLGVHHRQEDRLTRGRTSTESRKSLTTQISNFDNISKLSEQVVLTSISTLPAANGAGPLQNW
# Assay: 3H-EMPA radioligand binding assay
# Conditions: 3H-EMPA displacement, membranes of HEK293 cells transfected with human Orexin-2 receptor; KI by Cheng-Prussoff; read-out: OX2 pKi ave (converted)
# In short: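 Membranes from HEK293 cells transiently transfected with human orexin-2 receptor cDNA, assayed with [3H]EMPA. Bound ligand collected on PEI-treated GF/B filters and counted by scintillation; IC50 from inhibition curves, Ki by Cheng-Prusoff.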
row,Compound,Ki
1,"Cn1nc(CN2C(=O)N(Cc3c(F)cccc3F)c3ccccc3S2(=O)=O)c2ccccc21 [Example 125, 4-(2,6-Difluorobenzyl)-2-[(1-methyl-1H-indazol-3-yl)methyl]-2H-1,2,4-benzothiadiazin-3(4H)-one 1,1-dioxide]",38 nM
2,"O=C1N(Cc2c(F)cccc2F)c2ccccc2S(=O)(=O)N1Cc1cc(=O)[nH]c2ccccc12 [Example 126, 4-(2,6-Difluorobenzyl)-2-[(2-oxo-1,2-dihydroquinolin-4-yl)methyl]-2H-1,2,4-benzothiadiazin-3(4H)-one 1,1-dioxide]",35.5 nM
3,"Cc1cc(CN2C(=O)N(Cc3c(F)cccc3Cl)c3ccccc3S2(=O)=O)n(C)n1 [Example 127, 4-(2-Chloro-6-fluorobenzyl)-2-[(1,3-dimethyl-1H-pyrazol-5-yl)methyl]-2H-1,2,4-benzothiadiazin-3(4H)-one 1,1-dioxide]",58.9 nM
4,"O=C1N(Cc2c(F)cccc2Cl)c2ccccc2S(=O)(=O)N1Cc1ccccn1 [Example 128, 4-(2-Chloro-6-fluorobenzyl)-2-(pyridin-2-ylmethyl)-2H-1,2,4-benzothiadiazin-3(4H)-one 1,1-dioxide]",79.4 nM
5,"Cc1cc(CN2C(=O)N(Cc3c(F)cccc3Cl)c3ccccc3S2(=O)=O)no1 [Example 129, 4-(2-Chloro-6-fluorobenzyl)-2-[(5-methyl-1,2-oxazol-3-yl)methyl]-2H-1,2,4-benzothiadiazin-3(4H)-one 1,1-dioxide]",115 nM
6,"COc1ccc(N2C(=O)N(Cc3ccccc3C)c3c(F)cccc3S2(=O)=O)cn1 [Example 130, 5-Fluoro-2-(6-methoxypyridin-3-yl)-4-(2-methylbenzyl)-2H-1,2,4-benzothiadiazin-3(4H)-one 1,1-dioxide]",87.1 nM
7,"Cn1ccnc1CN1C(=O)N(Cc2c(F)cccc2F)c2ccccc2S1(=O)=O [Example 131, 4-(2,6-Difluorobenzyl)-2-[(1-methyl-1H-imidazol-2-yl)methyl]-2H-1,2,4-benzothiadiazin-3(4H)-one 1,1-dioxide]",295 nM
8,"Cn1cc(N2C(=O)N(Cc3c(F)cccc3Cl)c3ccccc3S2(=O)=O)ccc1=O [Example 132, 4-(2-Chloro-6-fluorobenzyl)-2-(1-methyl-6-oxo-1,6-dihydropyridin-3-yl)-2H-1,2,4-benzothiadiazin-3(4H)-one 1,1-dioxide]",302 nM
9,"CCN1CCCC(N2C(=O)N(Cc3c(F)cccc3F)c3ccccc3S2(=O)=O)C1 (centres unmarked) [Example 133, 4-(2,6-Difluorobenzyl)-2-(1-ethylpiperidin-3-yl)-2H-1,2,4-benzothiadiazin-3(4H)-one 1,1-dioxide]",661 nM
10,"Cc1cc(CN2C(=O)N(Cc3ccc(Cl)cc3F)c3ccccc3S2(=O)=O)n(C)n1 [Example 134, 4-(4-Chloro-2-fluorobenzyl)-2-[(1,3-dimethyl-1H-pyrazol-5-yl)methyl]-2H-1,2,4-benzothiadiazin-3(4H)-one 1,1-dioxide]",39.8 nM
11,"COc1ccc(N2C(=O)N(Cc3c(F)cc(C)cc3Cl)c3ccccc3S2(=O)=O)cn1 [Example 135, 4-(2-Chloro-6-fluoro-4-methylbenzyl)-2-(6-methoxypyridin-3-yl)-2H-1,2,4-benzothiadiazin-3(4H)-one 1,1-dioxide]",13.8 nM
12,"COc1ncc(N2C(=O)N(Cc3c(F)cccc3Cl)c3ccccc3S2(=O)=O)cn1 [Example 137, 4-(2-Chloro-6-fluorobenzyl)-2-(2-methoxypyrimidin-5-yl)-2H-1,2,4-benzothiadiazin-3(4H)-one 1,1-dioxide]",38 nM
13,"COc1cc(F)c(CN2C(=O)N(c3cccc(OC)n3)S(=O)(=O)c3ccccc32)c(F)c1 [Example 138, 4-(2,6-Difluoro-4-methoxybenzyl)-2-(6-methoxypyridin-2-yl)-2H-1,2,4-benzothiadiazin-3(4H)-one 1,1-dioxide]",1.45 nM
14,"COc1cccc(N2C(=O)N(Cc3c(F)cc(F)cc3Cl)c3ccccc3S2(=O)=O)n1 [Example 139, 4-(2-Chloro-4,6-difluorobenzyl)-2-(6-methoxypyridin-2-yl)-2H-1,2,4-benzothiadiazin-3(4H)-one 1,1-dioxide]",13.8 nM
15,"Cc1ccc(N2C(=O)N(Cc3c(F)cccc3Cl)c3ccccc3S2(=O)=O)cn1 [Example 142, 4-(2-Chloro-6-fluorobenzyl)-2-(6-methylpyridin-3-yl)-2H-1,2,4-benzothiadiazin-3(4H)-one 1,1-dioxide]",29.5 nM
16,"COc1cc(N2C(=O)N(Cc3c(F)cccc3Cl)c3ccccc3S2(=O)=O)ccn1 [Example 143, 4-(2-Chloro-6-fluorobenzyl)-2-(2-methoxypyridin-4-yl)-2H-1,2,4-benzothiadiazin-3(4H)-one 1,1-dioxide]",15.8 nM
17,"COc1cc(F)c(CN2C(=O)N(c3cc(OC)nc(OC)c3)S(=O)(=O)c3ccccc32)c(F)c1 [Example 149, 4-(2,6-Difluoro-4-methoxybenzyl)-2-(2,6-dimethoxypyridin-4-yl)-2H-1,2,4-benzothiadiazin-3(4H)-one 1,1-dioxide]",0.138 nM
18,"CCn1cc(N2C(=O)N(Cc3c(F)cccc3Cl)c3ccccc3S2(=O)=O)cn1 [Example 150, 4-(2-Chloro-6-fluorobenzyl)-2-(1-ethyl-1H-pyrazol-4-yl)-2H-1,2,4-benzothiadiazin-3(4H)-one 1,1-dioxide]",17.4 nM
19,"COc1cc(F)c(CN2C(=O)N(c3ccc(OC)c(OC)n3)S(=O)(=O)c3ccccc32)c(F)c1 [Example 153, 4-(2,6-Difluoro-4-methoxybenzyl)-2-(5,6-dimethoxypyridin-2-yl)-2H-1,2,4-benzothiadiazin-3(4H)-one 1,1-dioxide]",0.224 nM
20,"COc1cc(F)c(CN2C(=O)N(c3ccc(OC)nc3)S(=O)(=O)c3ccccc32)c(Cl)c1 [Example 154, 4-(2-Chloro-6-fluoro-4-methoxybenzyl)-2-(6-methoxypyridin-3-yl)-2H-1,2,4-benzothiadiazin-3(4H)-one 1,1-dioxide]",3.02 nM
21,"O=C1N(Cc2c(F)cc(F)cc2F)c2ccccc2S(=O)(=O)N1Cc1cc(=O)[nH]c2ccccc12 [Example 156, 4-(2,4,6-Trifluorobenzyl)-2-[(2-oxo-1,2-dihydroquinolin-4-yl)methyl]-2H-1,2,4-benzothiadiazin-3(4H)-one 1,1-dioxide]",11.2 nM

# The next lines start with the values.
row,Ki,Compound
1,5.01 nM,"O=C1N(Cc2c(F)cc(F)cc2F)c2ccccc2S(=O)(=O)N1c1ccc2ncsc2c1 [Example 124, 2-(1,3-Benzothiazol-6-yl)-4-(2,4,6-trifluorobenzyl)-2H-1,2,4-benzothiadiazin-3(4H)-one 1,1-dioxide]"
2,10.7 nM,"COc1cc(F)c(CN2C(=O)N(c3ccc(OC)nc3)S(=O)(=O)c3ccccc32)c(F)c1 [Example 136, 4-(2,6-Difluoro-4-methoxybenzyl)-2-(6-methoxypyridin-3-yl)-2H-1,2,4-benzothiadiazin-3(4H)-one 1,1-dioxide]"
3,3.31 nM,"COc1cc(F)c(CN2C(=O)N(c3ccnc(OC)c3)S(=O)(=O)c3ccccc32)c(F)c1 [Example 140, 4-(2,6-Difluoro-4-methoxybenzyl)-2-(2-methoxypyridin-4-yl)-2H-1,2,4-benzothiadiazin-3(4H)-one 1,1-dioxide]"
4,6.92 nM,"COc1cc(N2C(=O)N(Cc3c(F)cc(F)cc3Cl)c3ccccc3S2(=O)=O)ccn1 [Example 141, 4-(2-Chloro-4,6-difluorobenzyl)-2-(2-methoxypyridin-4-yl)-2H-1,2,4-benzothiadiazin-3(4H)-one 1,1-dioxide]"
5,50.1 nM,"COc1cccc(N2C(=O)N(Cc3c(F)cc(F)cc3F)c3ccccc3S2(=O)=O)n1 [Example 144, 2-(6-Methoxypyridin-2-yl)-4-(2,4,6-trifluorobenzyl)-2H-1,2,4-benzothiadiazin-3(4H)-one 1,1-dioxide]"
6,0.363 nM,"COc1cc(F)c(CN2C(=O)N(c3cnc(OC)c(OC)c3)S(=O)(=O)c3ccccc32)c(F)c1 [Example 146, 4-(2,6-difluoro-4-methoxybenzyl)-2-(5,6-Dimethoxypyridin-3-yl)-2H-1,2,4-benzothiadiazin-3(4H)-one 1,1-dioxide]"
7,1.58 nM,"COc1ccc(N2C(=O)N(Cc3c(F)cc(F)cc3F)c3ccccc3S2(=O)=O)nc1OC [Example 147, 2-(5,6-Dimethoxypyridin-2-yl)-4-(2,4,6-trifluorobenzyl)-2H-1,2,4-benzothiadiazin-3(4H)-one 1,1-dioxide]"
8,1.38 nM,"COc1cc(N2C(=O)N(Cc3c(F)cc(F)cc3F)c3ccccc3S2(=O)=O)cc(OC)n1 [Example 148, 2-(2,6-Dimethoxypyridin-4-yl)-4-(2,4,6-trifluorobenzyl)-2H-1,2,4-benzothiadiazin-3(4H)-one 1,1-dioxide]"
9,2 nM,"CSc1cncc(N2C(=O)N(Cc3c(F)cccc3Cl)c3ccccc3S2(=O)=O)c1 [Example 151, 4-(2-Chloro-6-fluorobenzyl)-2-[5-(methylsulfanyl)pyridin-3-yl]-2H-1,2,4-benzothiadiazin-3(4H)-one 1,1-dioxide]"
10,5.89 nM,"CSc1cncc(N2C(=O)N(Cc3c(F)cc(F)cc3F)c3ccccc3S2(=O)=O)c1 [Example 152, 2-[5-(Methylsulfanyl)pyridin-3-yl]-4-(2,4,6-trifluorobenzyl)-2H-1,2,4-benzothiadiazin-3(4H)-one 1,1-dioxide]"
11,1.74 nM,"COc1cc(N2C(=O)N(Cc3c(F)cc(F)cc3Cl)c3ccccc3S2(=O)=O)cnc1OC [Example 155, 4-(2-Chloro-4,6-difluorobenzyl)-2-(5,6-dimethoxypyridin-3-yl)-2H-1,2,4-benzothiadiazin-3(4H)-one 1,1-dioxide]"
